Reference: patent publication US9120787B2, “HIV replication inhibitors” (priority 2011, dated 2015)
pIC50: −log10 of the molar value. Where two headings read alike, the source gives them in different places.

Columns and labels:
[1] = tested on: HIV-1Ba-L; assay: Inhibition of virus replication in MAGI-CCR5 cells (β-galactosidase reporter); format: cell-based
Outline: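 HeLa-derived MAGI-CCR5 cells (high CD4/CCR5, HIV-1 LTR-driven β-galactosidase) plated at 1.0×10^4 cells/well the day before infection with HIV-1Ba-L. Compounds tested at six concentrations in triplicate, with parallel uninfected plates for cytotoxicity.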

[2] = tested on: HIV-1Ba-L; assay: HIV-1Ba-L replication in PBMCs (supernatant RT end-point)
Outline: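 Pooled PHA-stimulated human PBMCs (5×10^4 cells/well) were infected with HIV-1Ba-L at MOI 0.1 with nine ½-log compound dilutions and cultured seven days at 37° C. Supernatant RT activity was measured by ^3H-TTP incorporation on poly rA:oligo dT (60 minutes, 37° C) and counted by scintillation.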

[3] = Cytotoxicity by MTS staining in uninfected MAGI-CCR5 cells; format: cell-based; details: human, read-out: TC50
Outline: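 Uninfected MAGI-CCR5 cells (HeLa-CD4-LTR-β-gal derived, expressing CD4/CCR5) plated at 1.0×10^4 cells/well the day before, then exposed to compounds at six concentrations in triplicate alongside parallel infected assays. Viability read by MTS staining.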

[4] = Cytotoxicity by MTS staining in PBMCs; format: cell-based; details: human, peripheral blood mononuclear cells (PBMC), read-out: TC50
Method: Cytotoxicity was assessed by MTS staining. At assay end-point, PBMC were stained with the addition of […] of the soluble tetrazolium-based dye MTS to determine cell viability and quantify compound toxicity. The plates were incubated 4 to 6 hrs at 37° C. Following incubation, the activity was assessed by reading absorbance values at 490/650 nm.

[5] = tested on: HIV-1 K103N, Y181C (A17); assay: HIV-1 K103N, Y181C (A17) replication in PBMCs; format: cell-based; details: for pIC50: Human immunodeficiency virus 1, PBMC; for TI (TC50/IC50): Virus A17 (K103N, Y181C) in PBMCs; for effect of RT changes K103N and Y181C on anti-viral activity: virus with K103 to Asparagine and Y181 to cysteine
Text: In another embodiment of the present disclosure compounds are provided which inhibit the replication of HIV strains resistant to NNRTIs. Compounds in this disclosure inhibit, A17, an HIV-1 virus with mutations in the RT non-nucleoside binding pocket, K103N and Y181C, in a dose-dependent susceptibility testing manner.
The asparagine variation at residue 103 and the cysteine variation at residue 181 are known to inhibit the activity of the NNRTI's.
Evaluation Dihydropyrimidines vs. HIV-1Ba-L and HIV-1 K103N, Y181C in PBMCs

[6] = Human immunodeficiency virus 1, HIV-1Ba-L in MAGI-CCR5 cells, 48 hours, β-galactosidase reporter expression, read-out: IC50
[7] = Human immunodeficiency virus 1, BAL, PBMC
[8] = Human immunodeficiency virus 1, PBMC, 168 h
[9] = Virus Ba-L in PBMCs (Ba-L vs A17 comparison)

SMILES | TI (TC50/IC50) ([1]; HIV-1Ba-L in MAGI-CCR5 cells) | pIC50 [1, 6] | TI (TC50/IC50) ([2]; HIV-1Ba-L in PBMCs) | pIC50 [2, 7] | pIC50 [2, 8] | TI (TC50/IC50) [2, 9] | CC50 at 48 h [3] [µM] | CC50 at 7 days ([4]; A17 line of the table) [µM] | CC50 at 7 days ([4]; Ba-L line of the table) [µM] | CC50 at 7 days ([4]; MTS staining) [µM] | pIC50 [5] | TI (TC50/IC50) [5] | effect of RT changes K103N and Y181C on anti-viral activity [5] | pIC50 ([1]; Human immunodeficiency virus 1, MAGI-CCR5, 48 h)
CC1=C(c2nc(-c3ccc(C#N)cc3)cs2)C(c2cc3ccccc3[nH]2)NC(=O)N1 (centres unmarked) [Example 10] | C (C < 50.0 to 10.0) | 5.30 to 6.00 | C (C < 50.0-10.0) | 5.30 to 6.00 | 5.30 to 6.00 | B (B < 100.0-50.0) | < 50 | ≥ 100 | ≥ 100 | 50 to 100 | 4.00 to 5.30 | D (D < 10.0) | – | –
CC1=C(c2nc(-c3ccc(C#N)cc3)cs2)C(c2cc3ccccc3n2C)NC(=O)N1 (centres unmarked) [Example 11] | A (A = TI (TC50/IC50) ≧ 100.0) | > 6.00 | A (A = TI (TC50/IC50) ≧100.0) | > 6.00 | > 6.00 | A (A = TI (TC50/IC50) ≧ 100.0) | ≥ 100 | ≥ 100 | ≥ 100 | ≥ 100 | < 4.00 | D (D < 10.0) | inhibit the anti-viral activity | –
CC1=C(c2nc(-c3ccc(C#N)cc3)cs2)C(c2ccc(F)nc2)NC(=O)N1 (centres unmarked) [Example 19] | B (B < 100.0-50.0) | 5.30 to 6.00 | A (A = TI (TC50/IC50) ≧100.0) | > 6.00 | > 6.00 | A (A = TI (TC50/IC50) ≧ 100.0) | ≥ 100 | ≥ 100 | ≥ 100 | ≥ 100 | < 4.00 | D (D < 10.0) | inhibit the anti-viral activity | –
CC1=C(c2nc(-c3ccc(C#N)cc3)cs2)C(c2cnc3ccccc3n2)NC(=O)N1 (centres unmarked) [Example 21] | D (D < 10.0) | < 4.00 | D (D < 10.0) | < 4.00 | < 4.00 | D (D < 10.0) | ≥ 100 | ≥ 100 | ≥ 100 | ≥ 100 | < 4.00 | D (D < 10.0) | – | –
COc1ccc(-c2csc(C3=C(C)NC(=O)NC3c3ccc(F)c([N+](=O)[O-])c3)n2)cc1 (centres unmarked) [Example 42] | D (D < 10.0) | < 4.00 | D (D < 10.0) | 4.00 to 5.30 | 4.00 to 5.30 | D (D < 10.0) | ≥ 100 | ≥ 100 | ≥ 100 | ≥ 100 | 4.00 to 5.30 | D (D < 10.0) | – | –
CC1=C(c2nc(-c3ccc(Cl)cc3)cs2)C(c2cccc(O)c2)NC(=O)N1 (centres unmarked) [Example 74] | C (C < 50.0 to 10.0) | 5.30 to 6.00 | C (C < 50.0-10.0) | – | 5.30 to 6.00 | – | 50 to 100 | – | – | 50 to 100 | – | – | – | –
CC1=C(c2nc(-c3ccc(C#N)cc3)cs2)C(c2cc(O)cc(O)c2)NC(=O)N1 (centres unmarked) [Example 80] | D (D < 10.0) | < 4.00 | B (B < 100.0-50.0) | – | 5.30 to 6.00 | – | ≥ 100 | – | – | ≥ 100 | – | – | – | –
CC1=C(c2nc(-c3ccc(C#N)cc3)cs2)C(c2ccc(OCc3ccccc3)c(Cl)c2)NC(=O)N1 (centres unmarked) [Example 81] | B (B < 100.0-50.0) | 5.30 to 6.00 | A (A = TI (TC50/IC50) ≧100.0) | – | > 6.00 | – | ≥ 100 | – | – | ≥ 100 | – | – | – | –
CC1=C(c2nc(-c3ccc(C#N)cc3C)cs2)C(c2cc3ccccc3n2C)NC(=O)N1 (centres unmarked) [Example 87] | A (A = TI (TC50/IC50) ≧ 100.0) | > 6.00 | A (A = TI (TC50/IC50) ≧100.0) | > 6.00 | > 6.00 | A (A = TI (TC50/IC50) ≧ 100.0) | ≥ 100 | ≥ 100 | ≥ 100 | ≥ 100 | 4.00 to 5.30 | C (C < 50.0-10.0) | – | –
CC1=C(c2nc(-c3ccc(F)cc3)cs2)C(Cc2ccccc2)NC(=O)N1 (centres unmarked) [Example 89] | D (D < 10.0) | < 4.00 | D (D < 10.0) | < 4.00 | 4.00 to 5.30 | D (D < 10.0) | ≥ 100 | ≥ 100 | ≥ 100 | ≥ 100 | < 4.00 | D (D < 10.0) | – | –
CC1=C(c2nc(-c3ccc(C#N)cc3)cs2)C(c2ccc(Oc3ccccc3)nc2)NC(=O)N1 (centres unmarked) [Example 90] | A (A = TI (TC50/IC50) ≧ 100.0) | > 6.00 | C (C < 50.0-10.0) | – | 5.30 to 6.00 | – | ≥ 100 | – | – | 50 to 100 | – | – | – | –
CC1=C(c2nc(-c3ccc(C#N)cc3)cs2)C(c2ccc(N(C)C)nc2)NC(=O)N1 (centres unmarked) [Example 91] | A (A = TI (TC50/IC50) ≧ 100.0) | > 6.00 | B (B < 100.0-50.0) | – | 5.30 to 6.00 | – | ≥ 100 | – | – | ≥ 100 | – | – | – | –
CC1=C(c2nc(-c3ccc(C#N)cc3)cs2)C(c2ccc(Cl)nc2Cl)NC(=O)N1 (centres unmarked) [Example 92] | A (A = TI (TC50/IC50) ≧ 100.0) | > 6.00 | C (C < 50.0-10.0) | – | 5.30 to 6.00 | – | ≥ 100 | – | – | 50 to 100 | – | – | – | –
CC1=C(c2nc(-c3ccc(C#N)cc3)cs2)C(c2ccc(Br)nc2)NC(=O)N1 (centres unmarked) [Example 93] | A (A = TI (TC50/IC50) ≧ 100.0) | > 6.00 | A (A = TI (TC50/IC50) ≧100.0) | > 6.00 | > 6.00 | A (A = TI (TC50/IC50) ≧ 100.0) | ≥ 100 | ≥ 100 | ≥ 100 | ≥ 100 | < 4.00 | D (D < 10.0) | – | –
Cc1nnc(C(=O)NC(C)(C)c2nc(C(=O)NCc3ccc(F)cc3)c(O)c(=O)n2C)o1 [Raltegravir, reference compound] | >3.85 | – | >371.0 | – | 8.52 | – | > 100 | – | – | > 1 | – | – | – | 7.59
